Series [1] in a line: Human liver microsome stability. In kind it is in vitro ADME. The following applies: human liver microsomes. Background: Microsomes from liver hold many membrane-bound enzymes, among them those of drug oxidation.
A short description of series [2]: Mouse liver microsome stability. In kind it is in vitro ADME. The settings on record: mouse liver microsomes.
The next series in a line: Human plasma stability. It is filed as in vitro ADME. The settings on record: 120 min.
Another series is described as follows: Mouse plasma stability. It is filed as in vitro ADME. The settings on record: 120 min.
The conditions of series [3]: pH 7.4.
Series [4] can be described thus: In vivo pharmacokinetics in mice. More on the design: species or system mouse. The settings on record: for clearance: male, CD-1, mouse, plasma, iv, 10 mg/kg; for time until brain level fell below target therapeutic level: mice, single 10 mg/kg IV dose, target 30 ng/g for 11 and 13B, 120 ng/g for 12.

For the molecule “1-(3-(5-cyclopropyl-4-phenyl-4H-1,2,4-triazol-3-yl)propyl)-3-(2-methylcyclohexyl)urea [Compound 3]”, in series [1], the “t1/2 HLM” value turned out to be 8 min. The “t1/2 MLM” value in series [2] is on record as 3 min. The molecule further showed a Hplasma stability in the series “Human plasma stability” of 98 % @ 120 min. For the same molecule, the Mplasma stability in “Mouse plasma stability” is given as 84 % @ 120 min. The Solubility in series [3] came out at 24.

The term clearance denotes a measure of how efficiently the substance is removed, as volume per time. A high value points to efficient removal. Take `CC1CC(O)CCC1NC(=O)NCCCCc1ccccc1` (centres unmarked) [Compound 11, 1-(4-hydroxy-2-methylcyclohexyl)-3-(4-phenylbutyl)urea]: in series [4], the clearance worked out at 63.9 mL/min/kg and the “time until brain level fell below target therapeutic level” value amounted to 1 h.

Turning to `O=C(NCCCCc1ccccc1)NC1CCC(O)CC1` (centres unmarked) [Compound 12, 1-(4-hydroxycyclohexyl)-3-(4-phenylbutyl)urea], in series [4], the clearance was found to be 29.5 mL/min/kg and the “time until brain level fell below target therapeutic level” value worked out at 1 h.

On to `CC1CCCCC1NC(=O)NCCCc1nnc(C2CC2)n1-c1ccccc1` (centres unmarked) [Compound 2, 1-(3-(5-cyclopropyl-4-phenyl-4H-1,2,4-triazol-3-yl)propyl)-3-(2-methylcyclohexyl)urea], for which, in the series “Human plasma stability”, the Hplasma stability was 95 % @ 120 min. In addition, the Mplasma stability in “Mouse plasma stability” is 100 % @ 120 min.

Take `O=C(CCCCCc1ccccc1)N[C@H]1CC[C@H](O)CC1` [Compound 13B, N-(trans-4-hydroxycyclohexyl)-6-phenylhexanamide]: the “time until brain level fell below target therapeutic level” value in series [4] is “greater than 2 hour”.

Consider “N-(4-fluoro-4-methylcyclohexyl)-6-phenylhexanamide [Compound 18]”, for which the “t1/2 HLM” value in series [1] is on record as 10.2 min. Also, the “t1/2 MLM” value in series [2] is on record as 2.8 min.

The half-life is the time in which the quantity being followed falls by half. Take `CC1CCCCC1NC(=O)NCCSc1nnc(C2CC2)n1-c1ccccc1` (centres unmarked) [Compound 1, 1-(2-((5-cyclopropyl-4-phenyl-4H-1,2,4-triazol-3-yl)thio)ethyl)-3-(2-methylcyclohexyl)urea, reference compound]: the half-life at 1 μM in series [2] stood at 2 min. Besides, in the series “Human plasma stability”, the Hplasma stability is listed as 95 % @ 120 min. The same molecule gave a Mplasma stability in “Mouse plasma stability” of 94 % @ 120 min.

Source of the values: article PMC7731667 (Journal of medicinal chemistry, 2020).
